Data published in article PMC6678097, “Machilin A Inhibits Tumor Growth and Macrophage M2 Polarization Through the Reduction of Lactic Acid” (Cancers, 2019).

Key:
LDHA [1] = system: LDHA; design: method as in PMID 30850682; conditions: through reducing its binding to substrate, pyruvate; cited from earlier work
LDHA [2] = target: LDHA (Homo sapiens, UniProt P00338); assay: Isothermal titration calorimetry (ITC) of LDHA and NADH; design: Full-length LDHA (residues 1–331) was obtained from cDNA by polymerase chain reaction (PCR); inferred from pET-28a vector and Ni-NTA purification; made in house; host or cells: E. coli BL21 (DE3); conditions: 25 °C, read-out: apparent KD of binding to LDHA
Protocol: compounds. The acquisition time was 1.704 sec, relaxation delay was 1.5 sec and 128 transient were collected. Lactate was quantified using Chenomx NMR Suite 7.1 professional with the Chenomx 600 MHz library database (Chenomx Inc., Edmonton, Alberta, Canada, ).
1.4. Isothermal Titration Calorimetry
Isothermal titration calorimetry (ITC) measurements were carried out using MicroCal auto_iTC200 (GE healthcare, Chicago, IL, USA) at 25 °C. The purified LDHA protein was dialyzed in buffer containing 50 mM Tris-HCl (pH 8.0) and 200 mM NaCl at a concentration of 0.1 mM. NADH was solubilized in the same buffer at concentrations of 1 to 2 mM. The NADH was titrated into the LDHA solution onto an ITC200 microcalorimeter cell. The raw data were integrated and normalized using MicroCal Origin 7.0 software (GE healthcare). The determined binding affinity (KA) and enthalpy changes (ΔH) values were used to calculate ΔS from the standard thermodynamic equation.
For generation of bone marrow-derived macrophage (BMDM), bone marrow cells were extracted from C57BL/6 mice by surgery, and treated with M-CSF (10ng/ml) for 7days. BMDM cells were incubated with the indicated concentration of culture media with MA and lactate or not. The cells were washed with phosphate buffered saline (PBS) and fixed in 3.7% formaldehyde in PBS for 1h. […]

[3] = target: T1, purified recombinant human LDHA (rhLDHA) (Homo sapiens, UniProt P00338); assay: NADH binding assay (LDHA binding to Cibacron Blue 3GA agarose); conditions: machilin A 10 and 100 μM; NADH positive control
T1 construct: made in house
Protocol: An NADH binding assay was performed as described previously. The NADH binding ability of LDHA was determined by measuring the affinity of LDHA to agarose-immobilized Cibacron Blue 3GA, which resembles NADH. Then, 400 ng of purified recombinant human LDHA (rhLDHA) was incubated with NADH or MA, followed by incubation with 30 µL of Cibacron Blue agarose at 4 °C for 2 h. After a washing step with 20 mM Tris-HCl (pH 8.6), LDHA bound to beads was eluted in PBS using a sodium dodecyl sulfate (SDS) gel running buffer and was then subjected to–SDS-polyacrylamide gel electrophoresis (SDS-PAGE) and western blotting. Standardized amounts of protein were used in each reaction.

[4] = target: T2, purified recombinant LDHA (Homo sapiens, UniProt P00338); assay: In vitro LDH activity assay with purified recombinant LDHA; format: biochemical; conditions: up to a concentration of 1 mM
T2 construct: made in house
Protocol: A purification of recombinant LDHA was performed as described previously. LDH activity was determined by measuring the decrease of absorbance at 340 nm due to the oxidation of NADH in 20 mM HEPES-K^+, 0.05% bovine serum albumin (BSA), 20 μM NADH, and 2 mM pyruvate (Sigma-Aldrich, St. Louis, MO, USA) at a pH of 7.2 using a spectrofluorometer (Spectramax M2, Molecular Devices, San Jose, CA, USA; excitation 340 nm; emission 460 nm), as described previously. Ten nanograms of recombinant LDHA protein were used in the in vitro LDH activity assay. One microgram of total protein from cell or tissue lysates was used for intracellular or in vivo LDH assays.

## FC(F)(F)c1ccc([Se]c2ccccc2)cc1 [PSTMB, 1-(phenylseleno)-4-(trifluoromethyl)benzene]
LDHA [1]
  effect on LDHA activity: inhibited LDHA activity

## NC(=O)C1=CN(C2OC(COP(=O)(O)OP(=O)(O)OCC3OC(n4cnc5c(N)ncnc54)C(O)C3O)C(O)C2O)C=CC1 (centres unmarked) [NADH, 1,4-dihydronicotinamide adenine dinucleotide, reference compound]
LDHA [2]
  Kd: 10 µM
[3]
  LDHA binding to Cibacron Blue Agarose beads (NADH mimic): prohibited LDHA binding

## OCc1ccc2c(c1)OCO2 [piperonyl alcohol, reference compound]
[4]
  effect on LDHA activity: did not affect LDHA activity

## c1ccc2c(c1)OCO2 [1,3-benzodioxole, reference compound]
[4]
  effect on LDHA activity: did not affect LDHA activity
